Experimental data as given in patent US20230285577A1, “POLYSACCHARIDE DERIVATIVE, POLYSACCHARIDE DERIVATIVE-DRUG CONJUGATE, AND METHOD FOR PRODUCING SAME” (priority 2020, published 2023).
One block for each molecule: values may come before it.

Key:
[1] = Release test of DOX from HA-ABA-DOX (dialysis tube, PBS); format: physicochemical; conditions: PBS 37° C., pH 5.0, 6.0, 7.4
Procedure: Release of DOX from HA-ABA-DOX under different pH conditions was investigated in the same manner as in Example II-2. Specifically, 1 mL of an aqueous solution of the HA-ABA-DOX (1 mg/mL) obtained in Example II-3 above was placed in a dialysis tube (MWCO: 1 kDa), and shaken at 50 rpm while being incubated with 79 mL of PBS (37° C., pH=5.0, 6.0 7.4). The external solution (sustained release solution) was collected at specific time points, and new PBS was substituted for the entire amount. The drug concentration in the collected external solution (sustained release solution) was measured by UV-vis, and the release rate of the drug DOX was calculated.

[2] = system: AB22 cells (mouse mesothelioma cells); test: Cell toxicity evaluation (WST assay) of HA-ABA-DOX in AB22; format: cell-based; conditions: 48 hours; for Cell growth inhibition effect (cell viability): DOX 10^−3 to 100 μg/mL
Procedure: As with the HA-ABA, the cell toxicity of HA-ABA-DOX in AB22 cells (mouse mesothelioma cells) was evaluated by WST assay.
Specifically, AB22 cells (mouse mesothelioma cells) were seeded on 24-well plates and incubated for 24 hours. The medium was then replaced with media having […] dissolved at different DOX concentrations (10^−3 μg/mL, 10^−2 μg/mL, 10^−1 μg/mL, 1 μg/mL, 10 μg/mL, 100 μg/mL). Cell viability (%) 48 hours after sample addition was then measured by WST-8 assay (Cell Counting Kit-8 Dojindo).
For purposes of comparison as a control test, cell toxicity was also evaluated using free DOX in place of HA-ABA-DOX.

[3] = Release test of Van from AL-ABA-Van solution (dialysis membrane, PBS); format: physicochemical
Procedure: The release behavior or Van from an AL-ABA-Van solution at different pH values was investigated using a dialysis membrane (pore size: 50 kDa). Specifically, 1 mL of an AL-ABA-Van solution of the AL-ABA-Van obtained in Example I-7 above dissolved in […] of pure water was injected into a dialysis membrane cut to 9 cm, and both ends of the dialysis membrane were tied with kite thread. This was placed in an 80 mL security, container, 79 mL of PBS solution was added, and the mixture was stirred at the maximum rotational speed with a 1 cm stirrer tip in a 37° C. thermostatic tank. 1.0 mL samples were taken from the solution in the security container at specific time points (1, 2, 3, 4, 6, 8, 12, 24, and 48 hours). The sample solutions were subjected to UV-vis spectrum measurement, the drug concentration in the solutions was assayed based on absorbance, and the release rate of the drug Van (vancomycin release %) was calculated. The above measurements were conducted with pH 5.0, pH 6.0 and pH 7.4 PBS solutions (n=4 at each pH).
For purposes of comparison as control tests, the same release testing was also performed with the AL-ABA-Van solution replaced by a mixed solution (AL+Van) of sodium alginate and vancomycin obtained by dissolving 3 mg/mL of sodium alginate (AL) (IL-6G, viscosity 50 to 80 mPa·s (1%), manufactured by Kimica Co., Ltd.) and 8.6 mg/mL of vancomycin (Van) in pure water, and by a solution (Van only) obtained by dissolving 8.6 mg/mL of vancomycin (Van) in pure water.

[4] = Release test of PMX from HA-ABA-PMX (dialysis tube, PBS); format: physicochemical
Procedure: The release behavior or PMX from HA-ABA-PMX at different pH values was investigated using a dialysis tube (MWCO: 1 kDa). […] The external solution (sustained release solution) was collected at specific time points, and new PBS was substituted for the entire amount. The drug concentration in the collected external solution (sustained release solution) was measured by UV-vis, and the release rate of the drug PMX was calculated.

[5] = system: AB22 cells (mouse mesothelioma cells); test: Cell toxicity evaluation (WST assay) of HA-ABA-PMX in AB22; format: cell-based; conditions: 48 hours; for Cell growth inhibition effect (cell viability): PMX 10^−4 to 10 μg/mL
Procedure: (§1) As with the HA-ABA, the cell toxicity of HA-ABA-PMX in MeT-5A (human mesothelial cell line) and AB22 cells (mouse mesothelioma cells) was evaluated by WST assay.
(§2) Specifically, MeT-5A (human mesothelial cell line) and AB22 cells (mouse mesothelioma cells) were seeded on 24-well plates and incubated for 24 hours. The medium was then replaced with medium having HA-ABA-PMX dissolved at different PMX concentrations (10^−4 μg/mL, 10^−3 μg/mL, 10^−2 μg/mL, 10^−1 μg/mL, 1 μh/mL, 10 μg/mL). Cell viability (%) 48 hours after sample addition was then measured by WST-8 assay (Cell Counting Kit-8, Dojindo).

[6] = system: MeT-5A (human mesothelial cell line); test: Cell toxicity evaluation (WST assay) of HA-ABA-PMX in MeT-5A; format: cell-based; conditions: 48 hours; for Cell growth inhibition effect (cell viability): PMX 10^−4 to 10 μg/mL
Procedure: as §1, §2

Molecule: benzaldehyde-modified hyaluronic acid-doxorubicin conjugate [HA-ABA-DOX]
pH dependence of DOX release [1]: selective drug release at low pH | Concentration depressing cell viability compared with free DOX [2]: depressed cell viability at lower concentrations | Cell growth inhibition effect (cell viability) [2]: dose-dependent cell growth inhibition effects

Molecule: benzaldehyde-modified alginic acid-vancomycin conjugate [AL-ABA-Van]
Van released (cumulative release rate) ([3]; PBS pH 5.0, 37° C., after 10 hours): over 80% | Van not released ([3]; PBS pH 7.4, 37° C., after 10 hours): ~50% | pH dependence of Van release behavior ([3]; pH 5.0, 6.0, 7.4): released more rapidly the lower the pH

Molecule: COc1cccc2c1C(=O)c1c(O)c3c(c(O)c1C2=O)C[C@@](O)(C(=O)CO)C[C@@H]3O[C@H]1C[C@H](N)[C@H](O)[C@H](C)O1 [free DOX, Doxorubicin, reference compound]
Cell growth inhibition effect (cell viability) [2]: dose-dependent cell growth inhibition effects

PMX released ([4]; control solutions, within 2 hours): almost all
Molecule: Nc1nc2[nH]cc(CCc3ccc(C(=O)N[C@@H](CCC(=O)O)C(=O)O)cc3)c2c(=O)[nH]1 [Free PMX, Pemetrexed, reference compound]
Cell growth inhibition effect (cell viability) [5]: dose-dependent cell growth inhibition effects | Cell growth inhibition effect (cell viability) [6]: dose-dependent cell growth inhibition effects

Molecule: CN[C@H](CC(C)C)C(=O)N[C@H]1C(=O)N[C@@H](CC(N)=O)C(=O)N[C@H]2C(=O)N[C@H]3C(=O)N[C@H](C(=O)N[C@H](C(=O)O)c4cc(O)cc(O)c4-c4cc3ccc4O)[C@H](O)c3ccc(c(Cl)c3)Oc3cc2cc(c3O[C@@H]2O[C@H](CO)[C@@H](O)[C@H](O)[C@H]2O[C@H]2C[C@](C)(N)[C@H](O)[C@H](C)O2)Oc2ccc(cc2Cl)[C@H]1O [Van, Vancomycin, reference compound]
Van released ([3]; control solutions, first 10 hours, pH 5.0, 6.0, 7.4): almost all | pH dependence of Van release behavior ([3]; pH 5.0, 6.0, 7.4): no difference in release behavior depending on pH

Molecule: benzaldehyde-modified hyaluronic acid-pemetrexed conjugate [HA-ABA-PMX]
PMX released (cumulative drug release) ([4]; PBS pH 5.0, 37° C., after 24 hours): more than 80% | PMX not released ([4]; PBS pH 7.4, 37° C., after 24 hours): 40% | pH dependence of PMX release ([4]; pH 5.0, 6.0, 7.4): released more rapidly at lower pH values | Concentration reducing cell viability compared with free PMX and HA-ADH-PMX [5]: reduced cell viability at lower concentrations | Cell growth inhibition effect (cell viability) [5]: dose-dependent cell growth inhibition effects | Concentration reducing cell viability compared with free PMX and HA-ADH-PMX [6]: reduced cell viability at lower concentrations | Cell growth inhibition effect (cell viability) [6]: dose-dependent cell growth inhibition effects
